“Also recorded” adds a separate entry of the source.
B1: nanobody Nb3.7 (VHH)
VHH: QVQLVESGGGLVQPGDSLRLSCAASGRTFSINAMAWFRQAPGKEREYVAQISWTGGNTYYAESVKGRFTISRDNAKNTVYLQMISLKPEDTAVYYCAADSGGIRLGASRWNYWGQGTQVTVSS
B2: nanobody Nb3.4 (VHH)
VHH: QVQLVESGGGLVQAGDSLRLSCAASGLTFSRYDMAWFRQAPGKEREFVAAITWTGSITDYADSVKGRFTISRDNAKNTIYLQMNSLKPEDTAVYYCAAAQVPYGSTLKFNLRTLFGSWGQGTQVTVSS
B3: nanobody Nb3.3 (VHH)
VHH: QVQLVESGGGLVQAGDSLRLSCAASGRTFSNYYMAWFRQAPGKEREFVAAIRLSYGSTYYADSVRGRFTISKDNAKNTVNLRMNSLKSEDTAIYYCAAAEDRWALAVRTATTYNYWGQGTQVTVSS

Key:
[1] = target: T1, hSLC19A3-wt overexpressed in Expi293F cells (Homo sapiens, UniProt Q9BZV2); test: Mass spectrometry-based cellular thiamine-d3 uptake assay; assay type: cell-based; settings: 200 μM compound, 2 μM thiamine-d3, 5 min, n = 3
T1 construct: full-length, wildtype human SLC19A3; expressed in transfected cells; host or cells: Expi293F
Procedure: The cells were then pelleted for 5 min at 250×g and resuspended in 1×PBS (pH 7.4) at a cell density of 2 million cells per mL. The cell suspension was subsequently transferred to a 96-deep well plate in three technical replicates per condition (n = 3, 1 mL per well, corresponding to 2 million cells per condition). 200 μM of the selected compounds were added to the respective wells and the cells were incubated for 1 min on a shaking platform. […] Afterwards, the cells were pelleted for 5 min at 500×g and washed 3× with 1 mL 1×PBS (pH7.4), before transferring them to a fresh 96-deep well plate. The cell pellets were stored at –70 °C. For the LC-MS/MS analysis, the samples were extracted by adding 500 µL of a mixture of H2O:MeOH:ACN (1:1:1, v/v), containing 5% (v/v) formic acid. After vortexing and ultrasonication in a water bath for 5 min at 4 °C, samples were incubated for 20 min at –20 °C. […] The supernatants were then transferred for LC-MS analysis, which was initiated within one hour after sample preparation. LC-MS/MS analysis was performed on a Vanquish UHPLC system coupled to an Orbitrap Exploris 240 high-resolution mass spectrometer (Thermo Fisher Scientific, MA, USA) in positive ESI (electrospray ionization) mode. Chromatographic separation was carried out on an Atlantis Premier BEH Z-HILIC column (Waters, MA, USA; 2.1 mm × 100 mm, 1.7 µm) at a flow rate of 0.25 mL/min. The mobile phase consisted of water:acetonitrile (9:1, v/v; mobile phase phase A) and acetonitrile:water (9:1, v/v; mobile phase B), which were modified with a total buffer concentration of 10 mM ammonium formate. The aqueous portion of each mobile phase was adjusted to pH 3.0 via addition of formic acid. The following gradient (8 min total run time including re-equilibration) was applied (time [min]/%B): 0/90, 3/85, 3.5/60, 4/60, 5/90, 8/90. Column temperature was maintained at 40 °C, the autosampler was set to 4 °C and sample injection volume was set to 3 µL. Analytes were recorded via a full scan with a mass resolving power of 120,000 over a mass range from 60 to 900 m/z (scan time: 100 ms, RF lens: 70%).
All experimental samples were measured in a randomized manner. Pooled quality control (QC) samples were prepared by mixing equal aliquots from each processed sample. Multiple QCs were injected at the beginning of the analysis in order to equilibrate the analytical system. A QC sample was analyzed after every 6th experimental sample to monitor instrument performance throughout the sequence. For determination of background signals and subsequent background subtraction, an additional processed blank sample was recorded. Data was processed using TraceFinder 5.1 and raw peak area data was exported for relative metabolite quantification.

hSLC19A3-wt = target: T2, hSLC19A3-wt (Homo sapiens, UniProt Q9BZV2); test: nanoDSF thermal shift assay / apparent binding affinity, wildtype transporter; settings: for thermal shift / interaction with hSLC19A3, in words: thermal shift screen at 20 μM and 200 μM compound
T2 construct: full-length, wildtype human SLC19A3; made in house; host or cells: Expi293F
Procedure: The thermal stability of the hSLC19A3 constructs and their binding affinities for small molecules were determined by nanoDSF, using a Prometheus NT.48 (NanoTemper Technologies). For sample preparation, the protein was diluted to a final concentration of 4 μM in SEC buffer and supplied with the respective compounds in a concentration range from 2 μM to 2 mM. Before measurement, the samples were incubated for 30 min at room temperature. Melting scans were performed at a temperature range from 20 to 95 °C with a temperature increment of 1 °C per minute. Thermal unfolding curves were recorded by measuring the ratio of the tryptophan-fluorescence at 350 nm (F350) and 330 nm (F330). The protein melting temperature (Tm) of a given sample was determined as the inflection point of the thermal unfolding curves, or the local maximum of its first derivative. The measured curves were analysed using the manufacturer’s software (PR.ThermControl, v 2.1.2, NanoTemper Technologies). Based on the determined Tm values, ligand induced thermal shifts (ΔTm) were determined as the difference between the melting temperature of the ligand-bound state (Tm) and the apo state (Tm^apo).
As R, Tstd and L are known and the ΔTm and Tm^apo are experimentally determined, non-linear curve fitting can be used to estimate Ea1 and Kd,app.

SLC19A3 = settings: cited from earlier work
[2] = target: glycosylation-free mutant of hSLC19A3 (hSLC19A3-gf) (human, UniProt Q9BZV2 1-496, Asn45 mutated to glutamine | Asn166 mutated to glutamine); test: BLI
Chain of glycosylation-free mutant of hSLC19A3 (hSLC19A3-gf) (Q9BZV2 other isoform, or with tags, fused parts or gaps with the stated changes): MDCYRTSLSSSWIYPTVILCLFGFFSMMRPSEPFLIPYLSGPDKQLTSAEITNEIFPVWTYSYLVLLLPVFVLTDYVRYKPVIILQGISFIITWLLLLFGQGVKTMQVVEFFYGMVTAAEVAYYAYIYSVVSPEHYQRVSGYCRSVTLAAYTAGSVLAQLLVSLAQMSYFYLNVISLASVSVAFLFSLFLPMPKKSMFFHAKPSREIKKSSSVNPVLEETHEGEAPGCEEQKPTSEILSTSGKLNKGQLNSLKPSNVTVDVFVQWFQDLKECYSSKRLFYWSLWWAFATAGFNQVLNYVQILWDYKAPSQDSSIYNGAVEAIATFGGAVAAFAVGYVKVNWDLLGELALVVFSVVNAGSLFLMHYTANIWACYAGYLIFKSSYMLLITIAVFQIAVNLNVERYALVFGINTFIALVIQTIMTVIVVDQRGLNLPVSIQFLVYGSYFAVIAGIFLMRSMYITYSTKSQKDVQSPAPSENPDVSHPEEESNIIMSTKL

T2 sequence (Q9BZV2 with tags, fused parts or gaps): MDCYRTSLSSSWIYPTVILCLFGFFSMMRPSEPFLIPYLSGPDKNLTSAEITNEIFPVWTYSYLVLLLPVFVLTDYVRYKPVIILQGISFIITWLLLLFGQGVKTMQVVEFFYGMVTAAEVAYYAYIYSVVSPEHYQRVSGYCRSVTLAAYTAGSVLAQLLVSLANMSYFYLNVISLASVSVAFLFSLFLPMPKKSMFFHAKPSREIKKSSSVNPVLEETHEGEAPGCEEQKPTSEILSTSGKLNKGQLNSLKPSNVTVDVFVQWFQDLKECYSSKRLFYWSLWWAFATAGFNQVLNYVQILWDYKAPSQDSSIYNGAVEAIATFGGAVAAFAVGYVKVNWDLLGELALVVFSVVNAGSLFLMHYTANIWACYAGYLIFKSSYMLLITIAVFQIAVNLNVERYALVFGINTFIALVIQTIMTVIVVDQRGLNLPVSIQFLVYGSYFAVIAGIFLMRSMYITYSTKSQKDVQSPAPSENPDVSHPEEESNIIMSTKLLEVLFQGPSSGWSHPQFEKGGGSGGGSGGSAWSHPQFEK
T1 sequence (Q9BZV2 with tags, fused parts or gaps): as above

| Molecule | inhibition of thiamine uptake through hSLC19A3, in words [1] | thermal shift / interaction with hSLC19A3, in words (hSLC19A3-wt) | other results |
| --- | --- | --- | --- |
| CN(C)CCC=C1c2ccccc2CCc2ccccc21 [amitriptyline] | inhibit its thiamine transport activity | destabilize the transporter in a concentration-dependent manner | – |
| CCCc1ncc(C[n+]2ccccc2C)c(N)n1 [amprolium] | – | strongly stabilised the transporter against heat unfolding in a concentration-dependent manner | – |
| CCS(=O)(=O)N1CC(CC#N)(n2cc(-c3ncnc4[nH]ccc34)cn2)C1 [baricitinib] | – | did not stabilise hSLC19A3 | – |
| O=C(O)CCCC[C@@H]1SC[C@@H]2NC(=O)N[C@@H]21 [biotin] | – | does not interact with the transporter | – |
| CN(C)CCCC1(c2ccc(F)cc2)OCc2cc(C#N)ccc21 (stereo not drawn) [citalopram] | interferes with thiamine uptake | also interact with hSLC19A3 | – |
| Cc1nc(Nc2ncc(C(=O)Nc3c(C)cccc3Cl)s2)cc(N2CCN(CCO)CC2)n1 [dasatinib] | interfered with thiamine-uptake through hSLC19A3 | – | – |
| CN(C)CCC=C1c2ccccc2COc2ccccc21 [doxepin] | inhibit its thiamine transport activity | destabilize the transporter in a concentration-dependent manner | – |
| COc1cc2ncnc(Nc3ccc(F)c(Cl)c3)c2cc1OCCCN1CCOCC1 [gefitinib] | interfered with thiamine-uptake through hSLC19A3 | – | – |
| CCN(CCO)CCCC(C)Nc1ccnc2cc(Cl)ccc12 (stereo not drawn) [hydroxychloroquine] | – | strongly stabilises hSLC19A3 | Kd (hSLC19A3-wt): 170 ± 55 nM |
| Cc1ccc(NC(=O)c2ccc(CN3CCN(C)CC3)cc2)cc1Nc1nccc(-c2cccnc2)n1 [imatinib] | interfered with thiamine-uptake through hSLC19A3; also recorded: inhibitory effect comparable to the one of fedratinib | strongly stabilized hSLC19A3 | Kd (hSLC19A3-wt): 4400 ± 500 nM |
| CN(C)CCCN1c2ccccc2CCc2ccccc21 [imipramine] | inhibit its thiamine transport activity | destabilize the transporter in a concentration-dependent manner | – |
| N#CCNC(=O)c1ccc(-c2ccnc(Nc3ccc(N4CCOCC4)cc3)n2)cc1 [momelotinib] | – | did not stabilise hSLC19A3 | – |
| Cc1ncc(C[n+]2csc(CCO)c2C)c(=O)[nH]1 [oxythiamine] | – | strongly decreased affinity and a lower thermostabilisation of the transporter; also recorded: stabilises the transporter only weakly | – |
| CCc1nc(N)nc(N)c1-c1ccc(Cl)cc1 [pyrimethamine] | – | – | ΔTm at 20 µM (hSLC19A3-wt; read-out: ΔTm (thermostabilisation)): 9.3 ± 0.5 °C |
| CN[C@H]1CC[C@@H](c2ccc(Cl)c(Cl)c2)c2ccccc21 [sertraline] | – | – | ΔTm (hSLC19A3-wt; at low micromolar concentrations, nanoDSF): 2.5 ± 0.4 °C |
| Cc1ncc(C[n+]2csc(CCOP(=O)(O)O)c2C)c(N)n1 [thiamine-p, thiamine monophosphate] | – | strongly reduced affinity | – |
| Cc1ncc(C[n+]2csc(CCO[P@](=O)(O)OP(=O)(O)O)c2C)c(N)n1 [thiamine-pp, thiamine pyrophosphate] | – | does not stabilise the transporter at all | – |
| C[C@@H]1CCN(C(=O)CC#N)C[C@@H]1N(C)c1ncnc2[nH]ccc12 [tofacitinib] | shows no inhibitory effect on thiamine transport | stabilising hSLC19A3 | – |
| COc1cc(Cc2cnc(N)nc2N)cc(OC)c1OC [trimethoprim] | – | – | substrate status at the transporter (SLC19A3): xenobiotic substrates of the transporter |
| B1 | – | – | Kd [2]: 110 nM |
| B2 | – | – | Kd [2]: 280 nM |
| B3 | – | – | Kd [2]: 200 nM |

Source: publication PMC11447181 (Nature Communications, 2024)
